biological target: T1, sGC α1/β1 heterodimer (Homo sapiens, UniProt Q02108+Q02153); experiment: Cell-Based sGC Functional Assay (CASA Assay); conditions: CHO-K1/sGC cells, intracellular cGMP by HTRF, 1 hr at 37 °C
T1 construct: expressed in transfected cells; host or cells: CHO-K1 (clone #7, CHO-K1/sGC)
T1 sequence (Q02108 1-690): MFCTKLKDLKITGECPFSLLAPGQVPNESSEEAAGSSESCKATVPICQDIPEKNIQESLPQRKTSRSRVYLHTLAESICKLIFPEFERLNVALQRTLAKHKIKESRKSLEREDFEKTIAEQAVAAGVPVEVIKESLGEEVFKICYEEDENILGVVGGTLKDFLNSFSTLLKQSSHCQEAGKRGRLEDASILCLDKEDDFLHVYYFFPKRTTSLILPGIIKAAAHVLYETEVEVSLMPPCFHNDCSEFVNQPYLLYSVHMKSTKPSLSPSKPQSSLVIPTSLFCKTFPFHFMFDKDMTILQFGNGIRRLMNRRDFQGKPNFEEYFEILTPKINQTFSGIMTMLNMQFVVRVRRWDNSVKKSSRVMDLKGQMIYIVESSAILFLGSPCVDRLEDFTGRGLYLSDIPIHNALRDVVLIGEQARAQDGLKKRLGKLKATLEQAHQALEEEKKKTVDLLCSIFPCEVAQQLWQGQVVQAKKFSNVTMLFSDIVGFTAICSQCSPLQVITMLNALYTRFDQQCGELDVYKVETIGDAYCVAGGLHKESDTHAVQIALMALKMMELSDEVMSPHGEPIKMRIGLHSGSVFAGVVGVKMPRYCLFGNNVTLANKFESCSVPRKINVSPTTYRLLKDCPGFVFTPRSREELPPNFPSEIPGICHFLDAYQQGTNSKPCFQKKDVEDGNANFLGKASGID
T1 sequence (Q02153 1-619): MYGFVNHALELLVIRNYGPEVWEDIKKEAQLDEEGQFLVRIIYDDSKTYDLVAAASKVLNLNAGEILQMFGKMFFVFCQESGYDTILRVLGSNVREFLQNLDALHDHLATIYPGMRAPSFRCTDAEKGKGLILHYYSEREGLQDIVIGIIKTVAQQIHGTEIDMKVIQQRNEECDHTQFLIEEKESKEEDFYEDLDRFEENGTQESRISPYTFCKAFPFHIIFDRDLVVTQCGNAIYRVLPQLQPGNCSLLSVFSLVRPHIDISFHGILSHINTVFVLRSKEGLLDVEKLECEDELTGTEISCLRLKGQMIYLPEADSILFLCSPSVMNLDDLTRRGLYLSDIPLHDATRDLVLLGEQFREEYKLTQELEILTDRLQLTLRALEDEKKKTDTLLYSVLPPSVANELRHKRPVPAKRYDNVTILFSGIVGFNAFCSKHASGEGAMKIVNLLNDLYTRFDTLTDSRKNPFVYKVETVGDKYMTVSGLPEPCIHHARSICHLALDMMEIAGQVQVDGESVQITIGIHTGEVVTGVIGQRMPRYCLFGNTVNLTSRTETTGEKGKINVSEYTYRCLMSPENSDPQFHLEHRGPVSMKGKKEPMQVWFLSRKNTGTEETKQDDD
Excerpt: Increases in cGMP levels affect several physiological processes including vasorelaxation through multiple downstream pathways. […] Heme-dependent activators (HDAs) preferentially activate sGC containing a ferrous heme group. To determine the effect of sGC activators on enzyme activity, the CASA assay was developed to monitor the generation of cGMP in a cell line that stably expresses the heterodimeric sGC protein.
A CHO-K1 cell line stably expressing the sGC α1/β1 heterodimer was generated using a standard transfection protocol. CHO-K1 cells were transfected with plasmids pIREShyghsGCα1 and pIRESneo-hsGCβ1 simultaneously using FUGENE reagent. Clones that stably express both subunits were selected with hygromycin and neomycin for ˜2 weeks. Clone #7 was chosen for the assay and was designated CHO-K1/sGC. CHO-K1/sGC cells were maintained in F-K12 medium containing 10% heat-inactivated Fetal Bovine Serum (FBS), 100 μg/mL penicillin/streptomycin, 0.5 mg/mL hygromycin and 0.25 mg/mL G418. […] IBMX (3-isobutyl-1-methylxanthin, 0.5 mM) was added to inhibit degradation of cGMP. Compounds were diluted from DMSO stock solutions and added to the assay at a final DMSO concentration of 1%. […] At the end of the incubation period, the reaction was terminated and the cells were lysed. The level of intracellular cGMP was determined using an HTRF-based assay kit (CisBio, 62GM2PEC), which detects the displacement of a fluorescence labeled cGMP from its specific antibody.

Row | EC50 [µM] | SMILES
1 | 0.024 | CC1(C)C(=O)Nc2nc(-c3nc(Cc4c(F)ccc(F)c4F)n4cc(Cl)ccc34)nc(N)c21 [Example 59, 4-amino-2-[6-chloro-3-(2,3,6-trifluorobenzyl)imidazo[1,5-a]pyridin-1-yl]-5,5-dimethyl-5,7-dihydro-6H-pyrrolo[2,3-d]pyrimidin-6-one]
2 | 0.083 | CC1(C)C(=O)Nc2nc(-c3nn(CCC(F)(F)C(F)(F)F)c4cc(Cl)ccc34)nc(N)c21 [Example 111, 4-amino-2-[6-chloro-1-(3,3,4,4,4-pentafluorobutyl)-1H-indazol-3-yl]-5,5-dimethyl-5,7-dihydro-6H-pyrrolo[2,3-d]pyrimidin-6-one]
3 | 0.031 | CC1(C)C(=O)Nc2nc(-c3nc(Cc4c(F)ccc(F)c4F)n4cc(F)ccc34)nc(N)c21 [Example 60, 4-amino-2-[6-fluoro-3-(2,3,6-trifluorobenzyl)imidazo[1,5-a]pyridin-1-yl]-5,5-dimethyl-5,7-dihydro-6H-pyrrolo[2,3-d]pyrimidin-6-one]
